Test results as given in US20070099822A1, “Regulation of tissue mineralization and phosphate metabolism by asarm peptides” (priority 2003, published 2007).
“Also recorded” adds a separate entry of the source.

Key:
[1] = tested on: mouse osteoblast cell-line 2T3; assay: Mineralized bone matrix formation assay (von Kossa), BMP2-induced; format: cell-based; settings: 2T3 cells; for effect on BMP2-mediated mineralization (von Kossa staining): Hu-MEPE 10-800 ng/mL, ASARM-peptide 60 and 300 ng/mL, control peptide 300 ng/mL
Description: Mineralized bone matrix formation assay. A mouse osteoblast cell-line (2T3-cells) were monitored using a mineralized matrix formation assay as described by Bhargava et al. (Ultrastructural analysis of bone nodules formed in vitro by isolated fetal rat calvaria cells. Bone 9:155-63, 1988) and cultured as described previously (Bhargava et al., supra; Chen et al. Differential roles for bone morphogenetic protein (BMP) receptor type IB and IA in differentiation and specification of mesenchymal precursor cells to osteoblast and adipocyte lineages. J Cell Biol 142:295-305, 1998; and Zhao, et al. Bone morphogenetic protein receptor signaling is necessary for normal murine postnatal bone formation. J Cell Biol 157:1049-60, 2002). Mineralization of the murine osteoblastic 2T3 cell-line has been extensively studied using physical techniques, electron microscopy and histological techniques. This cell line (2T3) undergoes exogenous BMP2-induced mineralized-matrix indistinguishable from normal bone-mineral hydroxyapatite in-vitro (Bhargava et al., supra; Chen et al., supra; and Zhao et al., supra). The cells were plated in 24-well culture plates at density of 2×10^4 cells/well and cultured with minimal essential medium (MEM) supplemented with 10% FCS. When the cells reached confluency (day 0), the medium was changed to MEM containing 5% FCS, 100 μg/mL ascorbic acid and 5 mM β-glycerol phosphate with or without 100 ng/mL of BMP-2. The effects of Hu-MEPE, MEPE ASARM-peptide and control peptide at different doses (see results section) in the absence and presence of BMP2 were measured using the von Kossa stain for mineralization. The medium was changed every other day and fresh reagents were added. Von Kossa stain of mineralized bone matrix was performed as follows. The cell cultures were washed with PBS twice, fixed in phosphate buffered formalin for 10 min, and then washed with water, and serially dehydrated in 70%, 95%, and 100% ethanol, twice each and air dried. The plates were rehydrated from 100% to 95% to 80% ethanol to water before staining. The water was removed, a 2% silver nitrate solution was added, and the plates were exposed to sunlight for 20 min, after which the plates were rinsed with water. 5% sodium thiosulfate was added for 3 min and the plates were then rinsed with water. The modified van Gieson stain was then used as a counterstain after the von Kossa stain. The unmineralized collagen matrix can be recognized by the yellow/red van Gieson stain. The acid fuchsin solution (5 part of 1% acid fuchsin, 95 part of picric acid, and 0.25 part of 12 M HCl) was added for 5 min. The plates were washed with water, and then 2×95% ethanol and 2×100% ethanol, and dried for image analysis. The area of von Kossa stained matrix was quantitated as previously described (Chen et al., supra). Briefly matrix was quantified by automated image analysis using a video analysis program (Jandel Scientific, San Rafael Calif.) and also a Bio-Rad (Hercules, Calif.) Quantity-1 image analysis capture program. A video screen camera (CCD/RGB; Sony Corp., Park Ridge, N.J.) linked to a microscope (model BH2; Olympus Corp., Precision Instruments Division, Lake Success, N.Y.) equipped with metallurgical lens was used to image plates.

[2] = target: anti-ASARM-peptide polyclonal; assay: Competitive ELISA, biotinylated against non-biotinylated ASARM-peptide; format: binding, Rabbit; settings: 0.5 ng/mL biotinylated ASARM-peptide
Description: MEPE ASARM-peptide (phosphorylated and non-phosphorylated) & polyclonal antibodies. The carboxy terminal region of MEPE containing residues 507-525 were synthesized using routine techniques by multiple peptide cloning systems (Multiple Peptide Systems, San Diego, Calif.). For ELISA studies, both phosphorylated and non-phosphorylated peptides were synthesized. The phosphorylated-form of the peptide (NH2—RDDSSESSDSG(Sp)S(Sp)E(Sp)DGD-COOH; SEQ ID NO. 14) was biotinylated using a Pierce EZ-Link Sulfo-NHS-LC-Biotinylation Kit (Pierce & Co, Rockford, Ill.) and the peptide de-salted using an Amersham Biosciences PD-10 Desalting column (Amersham Biosciences, Piscataway, N.J.). […] Rabbit polyclonal antibodies raised against ASARM-peptide NH2-[…]-COOH (SEQ ID NO. 5) were used in these studies and have been previously described (Rowe, et al., Bone 34:303-319, 2004). Pre-immune sera from the same rabbits were used as negative controls.
ELISA Assay. A new enzyme-linked-immunosorbent-assay (ELISA) was designed to specifically quantitate ASARM-peptide(s) in sera from humans and mice. […]

KD of quenching in competitive ELISA [2] [ng/mL]	Molecule	effect on BMP2-mediated mineralization (von Kossa staining) ([1]; BMP2 100 ng/mL, listed as MEPE ASARM-peptide)	effect on BMP2-mediated mineralization (von Kossa staining) ([1]; BMP2 100 ng/mL, listed as MEPE-ASARM-peptide)	Qmax (quench maximum) [2] [%]	effect on BMP2-mediated mineralization at concentrations above 100 ng/mL ([1]; BMP2 100 ng/mL, Hu-MEPE above 100 ng/mL)	effect on BMP2-mediated mineralization (von Kossa staining) ([1]; BMP2 100 ng/mL)	mineralization in the absence of BMP2 ([1]; no BMP2)
7.5	H-CFSSRRRDDSSESSDSGSSSESDGD-OH [ASARM-peptide]	dose-dependently inhibits	inhibit	98.7			
	Hu-MEPE: purified insect expressed full-length recombinant human MEPE (Matrix Extracellular Phosphoglycoprotein) (protein) PTFQPQTEKTKQSCVEEQRQEEKNKDNIGFHHLGKRINQELSSKENIVQERKKDLSLSEASENKGSSKSQNYFTNRQRLNKEYSISNKENTHNGLRMSIYPKSTGNKGFEDGDDAISKLHDQEEYGAALIRNNMQHIMGPVTAIKLLGEENKENTPRNVLNIIPASMNYAKAHSKDKKKPQRDSQAQKSPVKSKSTHRIQHNIDYLKHLSKVKKIPSDFEGSGYTDLQERGDNDISPFSGDGQPFKDIPGKGEATGPDLEGKDIQTGFAGPSEAESTHLDTKKPGYNEIPEREENGGNTIGTRDETAKEADAVDVSLVEGSNDIMGSTNFKELPGREGNRVDAGSQNAHQGKVEFHYPPAPSKEKRKEGSSDAAESTNYNEIPKNGKGSTRKGVDHSNRNQATLNEKQRFPSKGKSQGLPIPSRGLDNEIKNEMDSFNGPSHENIITHGRKYHYVPHRQNNSTRNKGMPQGKGSWGRQPHSNRRFSSRRRDDSSESSDSGSSSESDGD				very effective inhibitors; also recorded: completely inhibited mineralization	dose dependently and reproducibly inhibited mineralization; also recorded: inhibit; also recorded: highly significant inhibition	no effect on mineralization; also recorded: indistinguishable to control cells
